Test results reported in PubChem BioAssay (NCI).
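Method: 48-hour compound exposure of cells in 96-well plates, five concentrations, linear interpolation of endpoints. GI50 = concentration required for 50% inhibition of growth. TGI marks complete inhibition of growth.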

Tests used:
Assay in all cases: NCI tumour cell line growth inhibition, 48 h
786-0 renal = test system: 786-0 renal
A498 renal = test system: A498 renal
A549 NSCLC = test system: A549 NSCLC
ACHN renal = test system: ACHN renal
BT-549 breast = test system: BT-549 breast
CAKI-1 renal = test system: CAKI-1 renal
CCRF-CEM leukemia = test system: CCRF-CEM leukemia
COLO 205 colon = test system: COLO 205 colon
DU-145 prostate = test system: DU-145 prostate
EKVX NSCLC = test system: EKVX NSCLC
HCC-2998 colon = test system: HCC-2998 colon
HCT-15 colon = test system: HCT-15 colon
HL-60(TB) leukemia = test system: HL-60(TB) leukemia
HOP-62 NSCLC = test system: HOP-62 NSCLC
HOP-92 NSCLC = test system: HOP-92 NSCLC
HS 578T breast = test system: HS 578T breast
HT29 colon = test system: HT29 colon
KM12 colon = test system: KM12 colon
LOX IMVI melanoma = test system: LOX IMVI melanoma
M14 melanoma = test system: M14 melanoma
MALME-3M melanoma = test system: MALME-3M melanoma
MCF7 breast = test system: MCF7 breast
MDA-MB-231 breast = test system: MDA-MB-231 breast
MDA-MB-435 = test system: MDA-MB-435
MOLT-4 leukemia = test system: MOLT-4 leukemia
NCI-H226 lung = test system: NCI-H226 lung
NCI-H23 lung = test system: NCI-H23 lung
NCI-H460 lung = test system: NCI-H460 lung
NCI-H522 lung = test system: NCI-H522 lung
NCI/ADR-RES ovarian = test system: NCI/ADR-RES ovarian
OVCAR-3 ovarian = test system: OVCAR-3 ovarian
OVCAR-4 ovarian = test system: OVCAR-4 ovarian
OVCAR-5 ovarian = test system: OVCAR-5 ovarian
OVCAR-8 ovarian = test system: OVCAR-8 ovarian
PC-3 prostate = test system: PC-3 prostate
RPMI-8226 leukemia = test system: RPMI-8226 leukemia
RXF 393 renal = test system: RXF 393 renal
SF-268 CNS = test system: SF-268 CNS
SF-295 CNS = test system: SF-295 CNS
SF-539 CNS = test system: SF-539 CNS
SK-MEL-2 melanoma = test system: SK-MEL-2 melanoma
SK-MEL-28 melanoma = test system: SK-MEL-28 melanoma
SK-MEL-5 melanoma = test system: SK-MEL-5 melanoma
SK-OV-3 ovarian = test system: SK-OV-3 ovarian
SNB-19 CNS = test system: SNB-19 CNS
SNB-75 CNS = test system: SNB-75 CNS
SW-620 colon = test system: SW-620 colon
T-47D breast = test system: T-47D breast
TK-10 renal = test system: TK-10 renal
U251 CNS = test system: U251 CNS
UACC-257 melanoma = test system: UACC-257 melanoma
UACC-62 melanoma = test system: UACC-62 melanoma
UO-31 renal = test system: UO-31 renal

Work on `COc1cnc2c(c1)C(=O)c1c-2n(CCCN2CCN(CCO)CC2)c(=O)c2cc([N+](=O)[O-])ccc12` yielded a GI50 (786-0 renal) of 1610 nM, a TGI (786-0 renal) of 3130 nM and a GI50 (A498 renal) of 794 nM. The TGI (A498 renal) was 19700 nM, the GI50 (A549 NSCLC) was 1130 nM and the TGI (A549 NSCLC) was 2480 nM. It also gave a GI50 (ACHN renal) of 738 nM, a TGI (ACHN renal) of 15900 nM and a GI50 (BT-549 breast) of 2900 nM. It also gave a TGI (BT-549 breast) of 18900 nM, a GI50 (CAKI-1 renal) of 1340 nM and a TGI (CAKI-1 renal) of 15800 nM. It also gave a GI50 (CCRF-CEM leukemia) of 494 nM, a TGI (CCRF-CEM leukemia) of over 100000 nM and a GI50 (COLO 205 colon) of 1180 nM. It also gave a TGI (COLO 205 colon) of 5130 nM, a GI50 (DU-145 prostate) of 1430 nM and a TGI (DU-145 prostate) of 4420 nM. For the same compound, the GI50 (EKVX NSCLC) was 1800 nM, the TGI (EKVX NSCLC) was 4230 nM and the GI50 (HCC-2998 colon) was 11700 nM. The TGI (HCC-2998 colon) was 24900 nM, the GI50 (HCT-15 colon) was 1180 nM and the TGI (HCT-15 colon) was 2670 nM. For the same compound, the GI50 (HL-60(TB) leukemia) was 1690 nM, the TGI (HL-60(TB) leukemia) was 5270 nM and the GI50 (HOP-62 NSCLC) was 2760 nM. For the same compound, the TGI (HOP-62 NSCLC) was 19600 nM, the GI50 (HOP-92 NSCLC) was 13300 nM and the TGI (HOP-92 NSCLC) was 31000 nM. The GI50 (HS 578T breast) was 14700 nM, the TGI (HS 578T breast) was 42100 nM and the GI50 (HT29 colon) was 1240 nM. The TGI (HT29 colon) was 2630 nM, the GI50 (KM12 colon) was 1740 nM and the TGI (KM12 colon) was 4410 nM. The GI50 (LOX IMVI melanoma) was 1080 nM, the TGI (LOX IMVI melanoma) was 2510 nM and the GI50 (M14 melanoma) was 769 nM. It also gave a TGI (M14 melanoma) of 2490 nM, a GI50 (MALME-3M melanoma) of 1560 nM and a TGI (MALME-3M melanoma) of 3330 nM. The GI50 (MCF7 breast) was 142 nM, the TGI (MCF7 breast) was 1590 nM and the GI50 (MDA-MB-231 breast) was 1810 nM. The TGI (MDA-MB-231 breast) was 3740 nM, the GI50 (MDA-MB-435) was 1970 nM and the TGI (MDA-MB-435) was 4660 nM. It also gave a GI50 (MOLT-4 leukemia) of 552 nM, a TGI (MOLT-4 leukemia) of 4450 nM and a GI50 (NCI-H226 lung) of 964 nM. The TGI (NCI-H226 lung) was 20000 nM, the GI50 (NCI-H23 lung) was 1270 nM and the TGI (NCI-H23 lung) was 3330 nM. The GI50 (NCI-H460 lung) was 267 nM, the TGI (NCI-H460 lung) was 1450 nM and the GI50 (NCI-H522 lung) was 499 nM. It also gave a TGI (NCI-H522 lung) of 2890 nM, a GI50 (NCI/ADR-RES ovarian) of 1290 nM and a TGI (NCI/ADR-RES ovarian) of 3860 nM. The GI50 (OVCAR-3 ovarian) was 1460 nM, the TGI (OVCAR-3 ovarian) was 3120 nM and the GI50 (OVCAR-4 ovarian) was 1790 nM. For the same compound, the TGI (OVCAR-4 ovarian) was 4420 nM, the GI50 (OVCAR-5 ovarian) was 19500 nM and the TGI (OVCAR-5 ovarian) was 37200 nM. The GI50 (OVCAR-8 ovarian) was 1390 nM, the TGI (OVCAR-8 ovarian) was 5030 nM and the GI50 (PC-3 prostate) was 16500 nM. For the same compound, the TGI (PC-3 prostate) was 92600 nM, the GI50 (RPMI-8226 leukemia) was 1570 nM and the TGI (RPMI-8226 leukemia) was 6750 nM. It also gave a GI50 (RXF 393 renal) of 4680 nM, a TGI (RXF 393 renal) of 20400 nM and a GI50 (SF-268 CNS) of 1070 nM. The TGI (SF-268 CNS) was 4920 nM, the GI50 (SF-295 CNS) was 533 nM and the TGI (SF-295 CNS) was 2050 nM. It also gave a GI50 (SF-539 CNS) of 1700 nM, a TGI (SF-539 CNS) of 3680 nM and a GI50 (SK-MEL-2 melanoma) of 18700 nM. For the same compound, the TGI (SK-MEL-2 melanoma) was 39000 nM, the GI50 (SK-MEL-28 melanoma) was 2010 nM and the TGI (SK-MEL-28 melanoma) was 4160 nM. The GI50 (SK-MEL-5 melanoma) was 1440 nM, the TGI (SK-MEL-5 melanoma) was 2780 nM and the GI50 (SK-OV-3 ovarian) was 4990 nM. It also gave a TGI (SK-OV-3 ovarian) of 20200 nM, a GI50 (SNB-19 CNS) of 2380 nM and a TGI (SNB-19 CNS) of 12400 nM. The GI50 (SNB-75 CNS) was 1640 nM, the TGI (SNB-75 CNS) was 13100 nM and the GI50 (SW-620 colon) was 326 nM. For the same compound, the TGI (SW-620 colon) was 2070 nM, the GI50 (T-47D breast) was 12800 nM and the TGI (T-47D breast) was 46500 nM. It also gave a GI50 (TK-10 renal) of 2770 nM, a TGI (TK-10 renal) of 11900 nM and a GI50 (U251 CNS) of 1160 nM. It also gave a TGI (U251 CNS) of 2420 nM, a GI50 (UACC-257 melanoma) of 2260 nM and a TGI (UACC-257 melanoma) of 6870 nM. The GI50 (UACC-62 melanoma) was 1220 nM, the TGI (UACC-62 melanoma) was 3160 nM and the GI50 (UO-31 renal) was 3320 nM. It also gave a TGI (UO-31 renal) of 20800 nM.
